What was measured:
GFP-HDAC4 in VSMCs = assay: GFP-HDAC4 cytoplasmic/nuclear localization in transfected VSMCs (CellProfiler scoring); format: cell-based, mouse; conditions: for cytoplasmic localization of HDAC4: VSMCs transfected with wild type GFP-HDAC4, vehicle 96.8%; for effect on HDAC4 location (nuclear accumulation / shuttling): VSMCs transfected with GFP-HDAC4
Procedure: (§1) Mouse aortic smooth muscle cells were purchased from ATCC (CRL-2797) and grown in DMEM supplemented with 10% FBS. 10 mmol/L beta-glycerophosphate (Sigma-Aldrich) and 0.2 mmol/L 2-Phospho-L-ascorbic acid (Sigma-Aldrich) were added to the growth media for 3-14 days to induce calcification (HPM). All cultured cells were maintained at 37° C. with 5% CO2.
Cell were transfected with pEGFP-HDAC4, pEGFP-HDAC4 3SA, pcDNA HDAC4-flag that were a gift from Tso-Pang Yao (Addgene plasmid #45636, #45637, #30485) [Cohen T. J. et al., The histone deacetylase HDAC4 connects neural activity to muscle transcriptional reprogramming. J Biol Chem 2007, 282, 33752-33759] or pEGFP-HDAC4 3-625 plasmid. Mouse ENIGMA (Pdlim7) or truncation mutants were cloned to pcDNA-3HA backbone plasmid. Transfections were performed using polyjet reagent (signaGen) according to manufacturer's instructions. Hdac4 siRNA (IDT), ENIGMA siRNA (GE Healthcare Life Sciences Dharmacon) LKB1 siRNA (IDT) and Sun2 siRNA (IDT) were transfected to the cells using Stemfect RNA Transfection Kit (Stemgent Inc.) according to manufacturer's instructions.
The pan-SIK, inhibitors: HG-9-91-01 (ApexBio #B1052), WH-4-023 (Sigma-Aldrich), MRT67307 (Sigma-Aldrich) and the pan-PKD and CamK inhibitors: CID-2011756 (Cayman #15317), KN-93 (Sigma-Aldrich K1285), were added to the HPM at final concentrations of 0.5, 1, 2, 5 and 10 μmol/L.
For localization and co-localization assays cell were transfected with pEGFP-HDAC4 plasmids, fixed with 4% formaldehyde in PBS, and blocked in 5% FBS in PBS. Staining for ENIGMA was done with overnight incubation of an antibody recognizing Pdlim7 (ProteinTech #10221-1-AP) in 2% FBS. Cy3-conjugated AffiniPure Donkey Anti-Rabbit IgG secondary antibody (Jackson ImmunoResearch) was used for detection. Nuclei were counterstained with DAPI 1 μg/ml. Cells were imaged using Zeiss Axio observer fluorescent microscope. Cytoplasmic and nuclear localization analysis was performed automatically on acquired images using CellProfiler cell image and analysis software [Carpenter A. E. et al., CellProfiler: image analysis software for identifying and quantifying cell phenotypes. Genome Biol 2006, 7, R100].

VSMCs [1] = assay: O-cresolphthalein calcium colorimetric assay of VSMCs (matrix calcification); format: cell-based, mouse; conditions: VSMCs in HPM, 14 days, normalized to protein concentration
Procedure: as §1
After 14 days of growth cells were washed in PBS and incubated overnight in 0.6N HCl. HCl was collected and calcium content was measured using o-cresolphthalein Calcium colorimetric assay kit (Sigma-Aldrich) according to manufacture instructions. Calcium concentration was then normalized to cells protein concentration.

VSMCs [2] = assay: qRT-PCR of osteochondrogenic markers in VSMCs; format: cell-based, mouse; conditions: VSMCs grown 7 days in HPM, 1 μM vs DMSO
Procedure: as §1
RNA was extracted from cultured cell using the NucleoSpin RNA kit (MACH EREY-NAGEL). The RNeasy Fibrous Tissue mini and midi kits (Qiagen) were used to extract RNA from aortic rings and human tissue (respectively). All kits were used in accordance with manufacturer protocol. Reverse transcription was done using iScript reagent (Bio-Rad). Quantitative real-time PCR was performed with iTaq universal SYBR green supermix (Bio-Rad) using Bio-Rad CFX96 real time system. Previous study has shown that Actb was among the most stably expressed genes in differentiating osteoblasts [Stephens A. S, et al., Internal control genes for quantitative RT-PCR expression analysis in mouse osteoblasts, osteoclasts and macrophages. BMC Res Notes 2011, 4, 410], and therefore expression data were normalized to the expression of Actb. For each expression analysis we used at least two different experiments, at least four biological replicates, and two technical replicates for each biological replicates for each gene. We performed a standard curve for each primer pair. […]

aortic calcification = assay: Vitamin D3 induced aortic calcification in ApoE-/- mice (Von Kossa, Alizarin red); format: in vivo, mouse; conditions: vitamin D3 overload, 5 mg/Kg/day IP then osmotic pump
Procedure: ApoE^−/− mice were purchased from The Jackson Laboratory. All animals were housed in a temperature-controlled environment with 12 hours light/dark cycles with food and water available ad libitum. Mice were aged 8 weeks when entering the study. Aortic calcification was induced via vitamin D3 overload as previously described [Idelevich A, Rais Y, Monsonego-Ornan E (2011) Bone Gla Protein Increases HIF-1-Dependent Glucose Metabolism and Induces Cartilage and Vascular Calcification. Arterioscler Thromb Vasc Biol 31: e55-e71]. 1α,25-Dihydroxyvitamin D3 (Sigma-Aldrich) was dissolved in 100% ethanol and diluted freshly. Mice received IP injections of 1α,25-Dihydroxyvitamin D3 for six consecutive days at a final concentration of 5 μg/Kg in 5% ethanol. SIK inhibition was achieved by daily administration of HG-9-91-01 (ApexBio #B1052) in DMSO at a final concentration of 5 mg/Kg/day. Littermate ApoE−/− mice were arbitrarily divided to receive treatment or control. In the first 4 days HG-9-91-01 was injected IP and on day 5 osmotic pumps (Alzet model 1002) were implanted. Animals were monitored daily and terminated for study at day 18. Specifically, mice were sacrificed in isoflurane and aortas were collected for histology. All mice procedures were performed in accordance with institutional guidelines. […]

aortic rings = assay: Aortic rings assay in HPM (qRT-PCR of osteochondrogenic markers, Von Kossa stain); format: cell-based, mouse; conditions: aortic rings 14 days in HPM
Procedure: Aortas were either fresh frozen in OCT sliced into section with a cryostat or fixed in 4% formaldehyde, embedded in paraffin and cut into thin sections. Slides were stained to detect calcium depositions with Alizarin red or Von Kossa stains. Alizarin red: slides were incubated in 2% alizarin red (Sigma-Aldrich) for 5 minutes at room temperature, excess stain was washed in DDW. Von Kossa: slides were incubated for 20 minutes in 5% silver nitrate (Sigma-Aldrich), washed twice in DDW, immersed in 0.5% hydroquinone (Sigma-Aldrich) for 2 minutes followed by 2 minutes of 5% sodium thiosulfate (Alfa Aesar).
Aortic rings were prepared as described [Nature protocols, Use of the mouse aortic ring assay to study angiogenesis.—PubMed—NCBI, Last updated January 2012, Accessed on January 2012]. In brief, adult C57BL/6 mice were euthanized with isoflurane; thoracic aorta was dissected, cleaned under a microscope and cut into rings. […]
RNA was extracted from cultured cell using the NucleoSpin RNA kit (MACH EREY-NAGEL). […] Quantitative real-time PCR was performed with iTaq universal SYBR green supermix (Bio-Rad) using Bio-Rad CFX96 real time system. Previous study has shown that Actb was among the most stably expressed genes in differentiating osteoblasts [Stephens A. S, et al., Internal control genes for quantitative RT-PCR expression analysis in mouse osteoblasts, osteoclasts and macrophages. […]

hepatocytes = conditions: cited from earlier work
bone mass = conditions: once daily treatment; cited from earlier work

SMILES: O=C(Nc1ccc(CN2CCOCC2)cc1)c1ccc(-c2cccc(Cl)c2)o1 [CID 2011756]
- cytoplasmic localization of HDAC4 (GFP-HDAC4 in VSMCs; 10 μmol/L): 99.6%
- effect on HDAC4 location (nuclear accumulation / shuttling) (GFP-HDAC4 in VSMCs): did not significantly affect the location of HDAC4

SMILES: COc1ccc(N(C(=O)Nc2c(C)cccc2C)c2cc(Nc3ccc(N4CCN(C)CC4)cc3)ncn2)c(OC)c1 [HG-9-91-01]
- matrix calcification (matrix calcium) (VSMCs [1]): blunted
- upregulation of the osteochondrogenic genes (VSMCs [2]): blunted the upregulation of the osteochondrogenic genes
- development of aortic medial calcifications (aortic calcification): markedly blunted the development of these calcifications
- matrix calcification (Von Kossa stain) (aortic rings): blunted
- upregulation of the osteochondrogenic genes (aortic rings; 1 μM vs DMSO): blunted
- cytoplasmic localization of HDAC4 (GFP-HDAC4 in VSMCs; 0.5 μmol/L): 97.4%
- cytoplasmic localization of HDAC4 (GFP-HDAC4 in VSMCs; 2 μmol/L): 75.7%
- cytoplasmic localization of HDAC4 (GFP-HDAC4 in VSMCs; 10 μmol/L): 14.4%
- effect on HDAC4 location (nuclear accumulation / shuttling) (GFP-HDAC4 in VSMCs): induced nuclear import of HDAC4 in a dose dependent manner
- gluconeogenic gene expression and glucose production (hepatocytes): enhanced gluconeogenic gene expression and glucose production in hepatocytes

SMILES: COc1ccc(S(=O)(=O)N(CCO)c2ccccc2CN(C)C/C=C/c2ccc(Cl)cc2)cc1 [KN-93]
- cytoplasmic localization of HDAC4 (GFP-HDAC4 in VSMCs; 10 μmol/L): 91.6%
- effect on HDAC4 location (nuclear accumulation / shuttling) (GFP-HDAC4 in VSMCs): did not significantly affect the location of HDAC4

SMILES: CCC(=C/[C@H](C)C/C=C/C(C)=C/[C@@H](C)C(=O)[C@@H](C)[C@H](O)[C@@H](C)C/C(C)=C/C(=O)O)/C=C/[C@@H]1OC(=O)C=C[C@@H]1C [Leptomycin B, leptomycin B]
- effect on HDAC4 location (nuclear accumulation / shuttling) (GFP-HDAC4 in VSMCs): induced nuclear accumulation of GFP-HDAC4

SMILES: O=C(NCCCNc1nc(Nc2cccc(CN3CCOCC3)c2)ncc1C1CC1)C1CCC1 [MRT67307]
- effect on HDAC4 location (nuclear accumulation / shuttling) (GFP-HDAC4 in VSMCs): induced the shuttling of HDAC4 to the nucleus

SMILES: COc1ccc(N(C(=O)Oc2c(C)cccc2C)c2ccnc(Nc3ccc(N4CCN(C)CC4)cc3)n2)c(OC)c1 [WH-4-023]
- effect on HDAC4 location (nuclear accumulation / shuttling) (GFP-HDAC4 in VSMCs): induced the shuttling of HDAC4 to the nucleus

SMILES: COc1ccc(N2C(=O)N(c3c(C)cccc3Cl)Cc3cnc(Nc4ccc(C5CCN(C)CC5)cc4OC)nc32)nc1 [YKL-05-099]
- skeletal effects / bone mass (bone mass): mimic skeletal effects of PTH and increase bone mass

From patent US11060092B2, “Inhibitors of cytoplasmic histone deacetylase 4 complex for treating or preventing vascular or valve calcification” (TECHNION RESEARCH AND DEVELOPMENT FOUNDATION LTD., priority 2016, dated 2021)
